According to PubChem BioAssay AID222 (DTP/NCI, 2004):
Where “and” joins values, the source holds several entries; their conditions need not be identical. Equal values may be shown once. Inconclusive results and toxic doses are left out. How the source made its calls: active means survival T/C of 150% or more; inactive means T/C below 125% in these data.

System: C57BL/6 mice, intracerebral ependymoblastoma, median survival T/C
Assay: NCI In Vivo Anticancer Drug Screen. Data for tumor model Ependymoblastoma (intracerebral) in C57BL/6 mice
Conditions: endpoint: median survival time, vehicle: saline, higher = longer survival
Method: The antitumor activity of compounds was measured in mice bearing transplantable tumors. Survival or tumor size were measured and the results are expressed as the measurement made in the treated group (T) divided by the measurement made in the vehicle treated control group (C). The tumor model used in this assay is Ependymoblastoma (intracerebral) in C57BL/6 mice

Measured: T/C

COc1cccc2c1C(=O)c1c(O)c3c(c(O)c1C2=O)C[C@@](O)(C(=O)CO)C[C@@H]3OC1CC(N)C(O)C(C)O1 (stereo not given in full)
inactive: dose: 0.12 mg/kg/injection, schedule: Q01DX001 (ip) 96 % of control | dose: 0.25 mg/kg/injection, schedule: Q01DX001 (ip) 86 % of control | dose: 0.25 mg/kg/injection, schedule: Q01DX005 (ip) 108 % of control | dose: 0.25 mg/kg/injection, schedule: Q01DX009 (ip) 107 % of control | dose: 0.25 mg/kg/injection, schedule: Q07DX003 (ip) 106 % of control | dose: 0.25 mg/kg/injection, schedule: Q## X006 (ip) 100 % of control | dose: 0.5 mg/kg/injection, schedule: Q01DX001 (ip) 88 % of control | dose: 0.5 mg/kg/injection, schedule: Q01DX005 (ip) 108 % of control | dose: 0.5 mg/kg/injection, schedule: Q01DX009 (ip) 103 % of control | dose: 0.5 mg/kg/injection, schedule: Q## X006 (ip) 119 % of control | dose: 0.5 mg/kg/injection, schedule: Q#A X002 (ip) 105 % of control | dose: 1.0 mg/kg/injection, schedule: Q01DX001 (ip) 96 % of control (2×) and 100 % of control | dose: 1.0 mg/kg/injection, schedule: Q01DX005 (ip) 110 % of control | dose: 1.0 mg/kg/injection, schedule: Q01DX005 (oral) 100 % of control | dose: 1.0 mg/kg/injection, schedule: Q07DX003 (ip) 96 % of control | dose: 1.0 mg/kg/injection, schedule: Q## X006 (ip) 110 % of control | dose: 1.0 mg/kg/injection, schedule: Q#A X002 (ip) 97 % of control | dose: 2.0 mg/kg/injection, schedule: Q01DX001 (ip) 104 % of control and 106 % of control and 111 % of control | dose: 2.0 mg/kg/injection, schedule: Q01DX005 (ip) 103 % of control | dose: 2.0 mg/kg/injection, schedule: Q07DX003 (ip) 101 % of control | dose: 2.0 mg/kg/injection, schedule: Q## X006 (ip) 119 % of control | dose: 2.0 mg/kg/injection, schedule: Q#A X002 (ip) 93 % of control | dose: 4.0 mg/kg/injection, schedule: Q01DX001 (oral) 101 % of control and 109 % of control | dose: 4.0 mg/kg/injection, schedule: Q01DX005 (oral) 94 % of control | dose: 4.0 mg/kg/injection, schedule: Q#A X002 (ip) 101 % of control and 108 % of control | dose: 8.0 mg/kg/injection, schedule: Q01DX001 (oral) 92 % of control and 97 % of control | dose: 8.0 mg/kg/injection, schedule: Q01DX005 (oral) 100 % of control | dose: 8.0 mg/kg/injection, schedule: Q#A X002 (ip) 97 % of control | dose: 16.0 mg/kg/injection, schedule: Q01DX001 (ip) 101 % of control | dose: 16.0 mg/kg/injection, schedule: Q01DX001 (oral) 96 % of control and 98 % of control and 106 % of control | dose: 16.0 mg/kg/injection, schedule: Q#A X002 (ip) 89 % of control | dose: 32.0 mg/kg/injection, schedule: Q01DX001 (ip) 100 % of control | dose: 32.0 mg/kg/injection, schedule: Q01DX001 (oral) 89 % of control and 92 % of control and 109 % of control | dose: 32.0 mg/kg/injection, schedule: Q#A X002 (ip) 86 % of control | dose: 64.0 mg/kg/injection, schedule: Q01DX001 (oral) 103 % of control and 107 % of control and 86 % of control | dose: 64.0 mg/kg/injection, schedule: Q#A X002 (ip) 88 % of control | dose: 128.0 mg/kg/injection, schedule: Q01DX001 (ip) 88 % of control | dose: 128.0 mg/kg/injection, schedule: Q01DX001 (oral) 93 % of control and 103 % of control and 107 % of control | dose: 128.0 mg/kg/injection, schedule: Q#A X002 (ip) 86 % of control | dose: 256.0 mg/kg/injection, schedule: Q01DX001 (oral) 103 % of control and 111 % of control
